Assay results taken from patent US20260216346A1, “COMPOUND, NANOPARTICLES, MEDICINE, AND METHOD FOR PRODUCING NANOPARTICLES” (priority 2022, published 2026).
Entries after “also recorded” stand apart in the source; their conditions may differ.

Columns and labels:
[1] = test system: human breast cancer cell line MCF-7; assay: In vitro activity test: cell viability, Cell Counting Kit-8; format: cell-based; conditions: nanoparticle dispersion, 0.04 to 10 µM (in terms of SN-38), 48 hours, FIG. 2
Experimental: A human breast cancer cell line MCF-7 was suspended in Dulbecco's modified Eagle's medium (DMEM) to which 10% fetal bovine serum (FBS) was added, thereby preparing a cell suspension of 2×10^5 cells/mL. The above-described cell suspension was seeded on a 96-well plate at 100 μL per well. The next day, the aqueous dispersion liquid of the nanoparticles of compound (1-1), the aqueous dispersion liquid of the nanoparticles of compound (2-1), or the aqueous dispersion liquid of the nanoparticles of SN-38, prepared as described above, was added to the MCF-7 cell culture solution so that the concentration thereof was 0.04 to 10 µM (in terms of SN-38). Thereafter, the cells were cultured at 37° C. and 5% CO2 for 48 hours. Thereafter, cell viability was measured by a colorimetric method using Cell Counting Kit-8 (manufactured by DOJINDO LABORATORIES.) and a microplate reader.

[2] = Drug release test in PBS under reduced dithiothreitol treatment (1); format: physicochemical; conditions: nanoparticles 5 μM, PBS (-) pH 7.4 with 10 mM reduced DTT, 37° C., 1 hour or 24 hours, HPLC
Experimental: In the present test, the release of SN-38 from compound (1-1) and compound (2-1) in PBS to which reduced DTT was added was evaluated.
A solution was prepared by adding an aqueous dispersion liquid (5 μM, 500 μL) of nanoparticles of compound (1-1) or an aqueous dispersion liquid (5 μM, 500 μL) of nanoparticles of compound (2-1) to 500 µL of PBS (-) to which 10 mM of reduced dithiothreitol (DTT) had been added. “PBS (-)” used hereinafter is phosphate-buffered saline (pH: 7.4) containing NaCl (137 mM), KCl (2.7 mM), Na2HPO4 (10 mM), and KH2PO4 (1.76 mM).
The above-described reaction solution was incubated at 37° C. for 1 hour or 24 hours. 200 μL of the reaction solution after incubation was collected. The collected reaction solution was mixed with 800 μL of a 3% acetic acid solution of acetonitrile/methanol (1/1). The obtained mixed solution was analyzed by high-performance liquid chromatography (detection wavelength: 365 nm) as an analysis target sample.

[3] = Drug release test in PBS under reduced glutathione treatment; format: physicochemical; conditions: nanoparticles 50 μM, PBS(−)/EtOH (7/3) pH 7.4 with 10 mM reduced GSH, 37° C., 1, 6, 24 or 48 hours, HPLC
Experimental: In the present test, the release of SN-38 from compound (1-1) and compounds (2-1) to (2-3) in PBS to which the reduced GSH was added was evaluated.
A reaction solution was prepared by adding the aqueous dispersion liquid (50 μM, 500 μL) of the nanoparticles of compound (1-1) or the aqueous dispersion liquid (50 μM, 500 μL) of the nanoparticles of any one of compounds (2-1) to (2-3) to 500 μL of PBS(−)/EtOH (7/3) (pH: 7.4) to which 10 mM of reduced glutathione (GSH) had been added.
The above-described reaction solution was incubated at 37° C. for 1 hour, 6 hours, 24 hours, or 48 hours. 200 μL of the reaction solution was collected after the incubation. The collected reaction solution was mixed with 800 μL of a 3% acetic acid solution of acetonitrile/methanol (1/1). The obtained mixed solution was analyzed by high-performance liquid chromatography (detection wavelength: 365 nm) as an analysis target sample.

[4] = Particle diameter of nanoparticles by SEM and DLS; format: physicochemical; conditions: aqueous dispersion liquid, 0.05 mM
Experimental: 100 μL of a dimethyl sulfoxide solution of compound (1-1), prepared at 5 mM, was injected into 10 mL of water at room temperature using a syringe, and the mixture was stirred at 1,500 rpm for 2 seconds to obtain an aqueous dispersion liquid of nanoparticles. The final concentration of compound (1-1) in the aqueous dispersion liquid of the nanoparticles was 0.05 mM. It was confirmed by SEM and DLS that a particle diameter thereof was approximately 100 nm. […] A ClogP of compound (1-1) was 5.92.

For `CCc1c2c(nc3ccc(OC(=O)C(C)(C)CCSSCCC(C)(C)C(=O)Oc4ccc5nc6c(c(CC)c5c4)Cn4c-6cc5c(c4=O)COC(=O)[C@]5(O)CC)cc13)-c1cc3c(c(=O)n1C2)COC(=O)[C@]3(O)CC` [Compound (1-1)], the “cell viability of MCF-7” value [1] was “higher cell viability of MCF-7 compared with SN-38; also recorded: lower than that of compound (2-1)”, the “release of SN-38” value [2] was “SN-38 was released” and the “release of SN-38” value [3] was “compound (1-1) was reduced and SN-38 was increased with the passage of time”. For the same molecule, the “particle diameter of nanoparticles” value [4] was “approximately 100 nm”.
